In brackets after ≈: the same amount, converted by molar mass. Read-outs that look alike come from different tables or passages of the source.
How the values were obtained:
Assay type in all cases: physicochemical
[1] = Dynamic moisture adsorption (DVS) hygroscopicity test; settings: for Hygroscopicity (moisture adsorption capacity): DVS, 25° C./80% RH; for Whether the crystal form has a change: XRPD before and after DVS test
Method: The moisture adsorption capacities of the representative salts and the free base of the above Examples and Comparative Examples were tested when the humidity reached 80% RH through a dynamic moisture adsorption (DVS) test at 25° C., so as to compare the hygroscopicities.
Experimental results: the test results are shown in Table 13, wherein, >15% means very hygroscopic, 2% to 15% means hygroscopic, 0.2% to 2% means slightly hygroscopic, and <0.2% means almost non-hygroscopic.

[2] = Solubility test in water, FaSSIF and FeSSIF (24 h, 37° C., HPLC concentration); settings: initial feeding amount 10 mg/ml; for solubility at 24 h: 37 °C, thermodynamic from solid
Method: Experimental method: the solubility test was carried out in three solvents including water, fasted state simulated intestinal fluid (FaSSIF) and fed state simulated intestinal fluid (FeSSIF), to evaluate the solubilities of the salts of the present invention.
In the experiment, the sample and the solvent were mixed in a centrifuge tube (the initial feeding amount was 10 mg/ml), then the centrifuge tube was sealed and fixed on a rotating disk with a rotation speed of 25 rpm, and sampling was performed after rotating and mixing for 24 h at 37° C. The turbid sample was subjected to centrifugal separation, and the filtered supernatant was measured for HPLC concentration. If the sample solution was clear, the concentration of the obtained solution was measured.

[3] = as above; settings: stated in background
[4] = Solid-state stability test, one week, HPLC purity; settings: for HPLC purity 1 week: open container; for HPLC purity, Initial purity: before storage
Method: Experimental method: appropriate amount of samples were respectively weighed and placed in open containers under the conditions of light illumination of 4500 lux, 25° C./60% RH and 40° C./75% RH to perform solid-state stability test evaluation for one week. One week later, the purities of the test samples were tested by HPLC to detect the change of purity. Three groups of parallel tests were set for each test condition.
High performance liquid chromatograms were collected on an Agilent 1100 HPLC.

[5] = FeSSIF, fessif, fed state simulated intestinal fluid, read-out: Solubility in FeSSIF
[6] = FaSSIF, fassif, fasted state simulated intestinal fluid, read-out: Solubility in FaSSIF
[7] = water, water, water, read-out: Solubility in water

SMILES	Hygroscopicity (moisture adsorption capacity) [1] [%]	Whether the crystal form has a change [1]	solubility at 24 h [2, 5] [µg/mL]	Solubility in water ([2]; water) [µg/mL]	HPLC purity 1 week Relative to the initial purity ([4]; 25° C./60% RH) [%]	HPLC purity 1 week ([4]; 25° C./60% RH) [Area %]	HPLC purity 1 week Relative to the initial purity ([4]; 40° C./75% RH) [%]	HPLC purity 1 week ([4]; 40° C./75% RH) [Area %]	HPLC purity 1 week Relative to the initial purity ([4]; Light illumination 4500 lux) [%]	HPLC purity 1 week ([4]; Light illumination 4500 lux) [Area %]	HPLC purity, Initial purity [4] [Area %]	solubility at 24 h [2, 6] [µg/mL]	solubility at 24 h [2, 7] [µg/mL]	further results
CC1=Nc2c(F)cc(-c3nc(Nc4ccc(C5CCN(C)CC5)cn4)ncc3F)cc2C12CCCC2 [Free base crystal form A, 5-fluoro-4-(7′-fluoro-2′-methylspiro[cyclopentane-1,3′-indol]-5′-yl)-N-(5-(1-methylpiperidin-4-yl)pyridin-2-yl)pyrimidine-2-amine, reference compound]	0.10	No change	10200 (≈ 20900 µM)	75 (≈ 154 µM)	100.0	100.0	99.9	99.92	99.3	99.28	100.00			Solubility in FaSSIF ([2]; fasted state simulated intestinal fluid): 190 µg/mL (≈ 389 µM); solubility [3]: 75 µg/mL (≈ 154 µM); HPLC purity 1 week Relative to the initial purity ([4]; Light illumination 4500 lux, listed as free base crystal form A): 99.3%
CC1=Nc2c(F)cc(-c3nc(Nc4ccc(C5CCN(C)CC5)cn4)ncc3F)cc2C12CCCC2.O=C(O)/C=C/C(=O)O [Fumarate crystal form A, Fumarate of 5-fluoro-4-(7′-fluoro-2′-methylspiro[cyclopentane-1,3′-indol]-5′-yl)-N-(5-(1-methylpiperidin-4-yl)pyridin-2-yl)pyrimidine-2-amine]	0.35	No change	8000	6300	100.0	99.89	100.0	99.88	100.0	99.89	99.92	7600		Whether the crystal form has a change ([1]; listed as fumarate crystal form A): no change; HPLC purity 1 week Relative to the initial purity ([4]; 40° C./75% RH, listed as fumarate crystal form A): 100%; HPLC purity 1 week Relative to the initial purity ([4]; Light illumination 4500 lux, listed as fumarate crystal form A): 100%
CC1=Nc2c(F)cc(-c3nc(Nc4ccc(C5CCN(C)CC5)cn4)ncc3F)cc2C12CCCC2.O=C(O)/C=C\C(=O)O [Maleate crystal form B, Maleate of 5-fluoro-4-(7′-fluoro-2′-methylspiro[cyclopentane-1,3′-indol]-5′-yl)-N-(5-(1-methylpiperidin-4-yl)pyridin-2-yl)pyrimidine-2-amine]	2.00	No change	7800		100.0	99.88	100.0	99.89	99.9	99.83	99.91	7100	12900	Whether the crystal form has a change ([1]; listed as maleate crystal form B): no change; HPLC purity 1 week Relative to the initial purity ([4]; 40° C./75% RH, listed as maleate crystal form B): 100%
CC1=Nc2c(F)cc(-c3nc(Nc4ccc(C5CCN(C)CC5)cn4)ncc3F)cc2C12CCCC2.O=C(O)CCC(=O)O [Succinate crystal form A, Succinate of 5-fluoro-4-(7′-fluoro-2′-methylspiro[cyclopentane-1,3′-indol]-5′-yl)-N-(5-(1-methylpiperidin-4-yl)pyridin-2-yl)pyrimidine-2-amine]	0.33	No change	10700		100.0	99.90	100.00	99.90	100.0	99.90	99.94	6400	7500	Whether the crystal form has a change ([1]; listed as succinate crystal form A): no change; HPLC purity 1 week Relative to the initial purity ([4]; 40° C./75% RH, listed as succinate crystal form A): 100%; HPLC purity 1 week Relative to the initial purity ([4]; Light illumination 4500 lux, listed as succinate crystal form A): 100%

Reference: patent US20220168302A1, “SALTS OF A COMPOUND, CRYSTAL FORMS OF THE SALTS AND PREPARATION METHOD AND USE THEREOF” (Gan & Lee Pharmaceuticals Co., Ltd., priority 2019, published 2022)
